The text below walks through data of ChEMBL document CHEMBL1147435, “Synthesis and antibiotic activity of the tricyclic furo[3,2-c] isochromen-2-trione unit of the pyranonaphthoquinones” (2004).

≈ marks a conversion by molar mass, not a printed value.

What all share (assay type): functional
Assay [1] relates to Bacillus subtilis. Put plainly: Minimum bactericidal concentration of compound against Bacillus subtilis.
Assay [2] concerns Bacillus subtilis. The assay can be described thus: Minimum inhibitory concentration of compound against Bacillus subtilis.
Assay [3] concerns Staphylococcus aureus. Put plainly: Minimum bactericidal concentration of compound against Staphylococcus aureus.
Assay [4] concerns Staphylococcus aureus. Put plainly: Minimum inhibitory concentration of compound against Staphylococcus aureus.

As for `COc1ccc2c(c1OC)COC1CC(=O)OC21` (stereo not drawn), the MBC against Bacillus subtilis [1] and against Staphylococcus aureus [3] was more than 128 µg/mL throughout. The MIC against Bacillus subtilis [2] and against Staphylococcus aureus [4] was 128 µg/mL (≈ 511 µM) in each case.
As to `COC1=CC(=O)C2=C(COC3CC(=O)OC23)C1=O` (stereo not drawn), the results for the MBC with Bacillus subtilis [1] and in the assay with Staphylococcus aureus [3] were 128 µg/mL (≈ 512 µM) and more than 128 µg/mL, respectively. Further, the results for the MIC against Bacillus subtilis [2] and with Staphylococcus aureus [4] were 32 µg/mL (≈ 128 µM) and 64 µg/mL (≈ 256 µM), respectively.
